Laboratory results taken from US20230278972A1, “SUBSTITUTED HALOALKYL SULFONANILIDE HERBICIDES” (FMC Corporation, priority 2020, published 2023).

Experiments:
Assay type in all cases: in vivo
[1] = system: barnyardgrass (Echinochloa crus-galli); assay: Test A postemergence, barnyardgrass; conditions: Postemergence, 0 to 100 scale (0 no effect, 100 complete control); for Plant response rating, Barnyardgrass: 125 g ai/ha; for Barnyardgrass plant response rating: 500 g ai/ha, visual injury vs untreated controls after approx. 10 days
Procedure, shortened: (§1)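 Directed soil spray at planting gave the preemergence treatment, while foliar application to one- to two-leaf seedlings (2–10 cm) gave the postemergence one; pots held a loam and sand mixture and chemicals were carried in a non-phytotoxic solvent with surfactant.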

[2] = system: Ryegrass, Italian (Italian ryegrass, Lolium multiflorum); assay: Test A postemergence, Ryegrass, Italian; conditions: Postemergence, 0 to 100 scale (0 no effect, 100 complete control); for Plant response rating, Ryegrass, Italian: 125 g ai/ha; for Ryegrass, Italian plant response rating: 500 g ai/ha, visual injury vs untreated controls after approx. 10 days
Procedure, shortened: (§2)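 Greenhouse pot test in a loam–sand blend; compounds delivered in a non-phytotoxic solvent carrying a surfactant, applied either as a directed spray to soil at seeding or over seedlings 2 to 10 cm high with one to two leaves.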

[3] = system: barnyardgrass (Echinochloa crus-galli); assay: Test A preemergence, barnyardgrass; conditions: Preemergence, 0 to 100 scale (0 no effect, 100 complete control)
Procedure, shortened: as §2

kochia (Bassia scoparia) [4] = assay: Test A postemergence, kochia; conditions: Postemergence, 0 to 100 scale (0 no effect, 100 complete control); for Plant response rating, Kochia: 125 g ai/ha; for Kochia plant response rating: 500 g ai/ha, visual injury vs untreated controls after approx. 10 days
Procedure, shortened: as §2

[5] = system: pigweed (Amaranthus retroflexus); assay: Test A postemergence, pigweed; conditions: Postemergence, 0 to 100 scale (0 no effect, 100 complete control); for Plant response rating, Pigweed: 125 g ai/ha; for Pigweed plant response rating: 500 g ai/ha, visual injury vs untreated controls after approx. 10 days
Procedure, shortened: as §2

[6] = system: ragweed (common ragweed, Ambrosia artemisiifolia); assay: Test A preemergence, ragweed; conditions: Preemergence; for Plant response rating, Ragweed: 125 g ai/ha, visual injury, 0 to 100 scale (0 no effect, 100 complete control), approx. 10 days; for Ragweed plant response rating: 500 g ai/ha, visual injury on 0 to 100 scale (0 no effect, 100 complete control), approximately 10 days
Procedure, shortened: as §2

[7] = system: blackgrass (Alopecurus myosuroides); assay: Test A postemergence, blackgrass; conditions: Postemergence, 0 to 100 scale (0 no effect, 100 complete control); for Plant response rating, Blackgrass: 125 g ai/ha; for Blackgrass plant response rating: 500 g ai/ha, visual injury vs untreated controls after approx. 10 days
Procedure, shortened: as §2

[8] = system: Foxtail, Giant (giant foxtail, Setaria faberi); assay: Test A preemergence, Foxtail, Giant; conditions: Preemergence; for Plant response rating, Foxtail, Giant: 125 g ai/ha, visual injury, 0 to 100 scale (0 no effect, 100 complete control), approx. 10 days; for Foxtail, Giant plant response rating: 500 g ai/ha, visual injury on 0 to 100 scale (0 no effect, 100 complete control), approximately 10 days
Procedure, shortened: as §2

[9] = system: Ryegrass, Italian (Italian ryegrass, Lolium multiflorum); assay: Test A preemergence, Ryegrass, Italian; conditions: Preemergence; for Plant response rating, Ryegrass, Italian: 125 g ai/ha, visual injury, 0 to 100 scale (0 no effect, 100 complete control), approx. 10 days; for Ryegrass, Italian plant response rating: 500 g ai/ha, visual injury on 0 to 100 scale (0 no effect, 100 complete control), approximately 10 days
Procedure, shortened: as §2

kochia (Bassia scoparia) [10] = assay: Test A preemergence, kochia; conditions: Preemergence; for Plant response rating, Kochia: 125 g ai/ha, visual injury, 0 to 100 scale (0 no effect, 100 complete control), approx. 10 days; for Kochia plant response rating: 500 g ai/ha, visual injury on 0 to 100 scale (0 no effect, 100 complete control), approximately 10 days
Procedure, shortened: as §2

[11] = system: ragweed (common ragweed, Ambrosia artemisiifolia); assay: Test A postemergence, ragweed; conditions: Postemergence, 0 to 100 scale (0 no effect, 100 complete control); for Plant response rating, Ragweed: 125 g ai/ha; for Ragweed plant response rating: 500 g ai/ha, visual injury vs untreated controls after approx. 10 days
Procedure, shortened: as §2

[12] = system: pigweed (Amaranthus retroflexus); assay: Test A preemergence, pigweed; conditions: for Plant response rating, Pigweed: 125 g ai/ha, visual injury, 0 to 100 scale (0 no effect, 100 complete control), approx. 10 days; for Pigweed plant response rating: 500 g ai/ha, visual injury on 0 to 100 scale (0 no effect, 100 complete control), approximately 10 days
Procedure, shortened: as §1

corn (Zea mays) = assay: Test A postemergence, corn; conditions: Postemergence, 0 to 100 scale (0 no effect, 100 complete control); for Plant response rating, Corn: 125 g ai/ha; for Corn plant response rating: 500 g ai/ha, visual injury vs untreated controls after approx. 10 days
Procedure, shortened: as §2

[13] = system: galium (catchweed bedstraw, Galium aparine); assay: Test A postemergence, galium; conditions: Postemergence, 0 to 100 scale (0 no effect, 100 complete control); for Plant response rating, Galium: 125 g ai/ha; for Galium plant response rating: 500 g ai/ha, visual injury vs untreated controls after approx. 10 days
Procedure, shortened: as §1

[14] = system: wheat (Triticum aestivum); assay: Test A postemergence, wheat; conditions: Postemergence, 0 to 100 scale (0 no effect, 100 complete control); for Plant response rating, Wheat: 125 g ai/ha; for Wheat plant response rating: 500 g ai/ha, visual injury vs untreated controls after approx. 10 days
Procedure, shortened: as §1

[15] = system: Foxtail, Giant (giant foxtail, Setaria faberi); assay: Test A postemergence, Foxtail, Giant; conditions: Postemergence, 0 to 100 scale (0 no effect, 100 complete control); for Plant response rating, Foxtail, Giant: 125 g ai/ha; for Foxtail, Giant plant response rating: 500 g ai/ha, visual injury vs untreated controls after approx. 10 days
Procedure, shortened: as §2

[16] = 125 g ai/ha, visual injury, approx. 10 days

SMILES | Plant response rating, Barnyardgrass [1] | Barnyardgrass plant response rating [1] | Plant response rating, Ryegrass, Italian [2] | Ryegrass, Italian plant response rating [2] | Plant response rating, Barnyardgrass [3, 16] | Plant response rating, Barnyardgrass ([3]; 500 g ai/ha) | Plant response rating, Kochia (kochia (Bassia scoparia) [4]) | Kochia plant response rating (kochia (Bassia scoparia) [4]) | Plant response rating, Pigweed [5] | Pigweed plant response rating [5] | Plant response rating, Ragweed [6] | Ragweed plant response rating [6] | Plant response rating, Blackgrass [7] | Blackgrass plant response rating [7] | Plant response rating, Foxtail, Giant [8] | Foxtail, Giant plant response rating [8] | Plant response rating, Ryegrass, Italian [9] | Ryegrass, Italian plant response rating [9] | Plant response rating, Kochia (kochia (Bassia scoparia) [10]) | Kochia plant response rating (kochia (Bassia scoparia) [10]) | further results
Cc1cc(F)c(C(=O)N2CCOCC2)cc1N(S(=O)(=O)C(F)(F)F)S(=O)(=O)C(F)(F)F [Compound 237] | 20 | 40 | 40 | 40 | 40 | 30 | 70 | 90 | 30 | 60 | 30 | 80 | 0 | 0 | 20 | 40 | 20 | 50 | 90 | 90 | Plant response rating, Ragweed [11]: 50; Ragweed plant response rating [11]: 80; Plant response rating, Pigweed [12]: 80; Pigweed plant response rating [12]: 100; Plant response rating, Corn (corn (Zea mays)): 0; Corn plant response rating (corn (Zea mays)): 20; Plant response rating, Galium [13]: 0; Galium plant response rating [13]: 50; Plant response rating, Wheat [14]: 0; Wheat plant response rating [14]: 0; Plant response rating, Foxtail, Giant [15]: 20; Foxtail, Giant plant response rating [15]: 40
Cc1cc(F)c(C(=O)N2CC(C)OC(C)C2)cc1NS(=O)(=O)C(F)(F)F (stereo not drawn) [Compound 238] | 0 | 60 | 30 | 70 | 0 | 0 | 20 | 30 | 30 | 80 | 20 | 90 | 0 | 30 | 30 | 60 | 60 | 90 | 80 | 60 | Plant response rating, Ragweed [11]: 60; Ragweed plant response rating [11]: 80; Plant response rating, Pigweed [12]: 20; Pigweed plant response rating [12]: 80; Plant response rating, Corn (corn (Zea mays)): 0; Corn plant response rating (corn (Zea mays)): 0; Plant response rating, Galium [13]: 80; Galium plant response rating [13]: 80; Plant response rating, Wheat [14]: 60; Wheat plant response rating [14]: 70; Plant response rating, Foxtail, Giant [15]: 30; Foxtail, Giant plant response rating [15]: 70
Cc1cc(F)c(C(=O)N2CCC(C#N)CC2)cc1N(S(=O)(=O)C(F)(F)F)S(=O)(=O)C(F)(F)F [Compound 239] | 0 | 0 | 0 | 0 | 0 | 20 | 0 | 10 | 20 | 50 | 20 | 70 | 0 | 0 | 20 | 60 | 0 | 30 | 30 | 80 | Plant response rating, Ragweed [11]: 0; Ragweed plant response rating [11]: 0; Plant response rating, Pigweed [12]: 60; Pigweed plant response rating [12]: 90; Plant response rating, Corn (corn (Zea mays)): 0; Corn plant response rating (corn (Zea mays)): 10; Plant response rating, Galium [13]: 0; Galium plant response rating [13]: 40; Plant response rating, Wheat [14]: 0; Wheat plant response rating [14]: 0; Plant response rating, Foxtail, Giant [15]: 0; Foxtail, Giant plant response rating [15]: 30
